This experiment relates to Pseudomonas aeruginosa, Escherichia coli, Staphylococcus aureus. The experiment is described as follows: Evaluation of reduction effect for inoculated bacteria. It counts as cell-based. The conditions noted are these: about 10^7 bacteria per 1 g sample; 7 days at 25° C.; plate count. How it is done: Pseudomonas aeruginosa, Escherichia coli, Staphylococcus aureus of about 10^7 were inoculated to the samples shown in Table 3 per 1 g of the respective samples. The viable microbe cell number were measured by plate count method after cultivation for 7 days at 25° C.
The viable microbe cell number on seventh day was calculated as a residual rate by defining the number of inoculated microbes to 100%, and the antibacterial activity of the samples was evaluated by classifying the residual rate into standards of four ranks as follow.

Molecules are shown by their SMILES.

As for `CCCC(O)CO` (centres unmarked) [Sample 10, 1,2-pentanediol], the “Antibacterial activity (residual rate of viable microbes)” value was “◯ (Residual rate lower than 10%, not lower than 0.01%)”.
Under `CC(O)CCO` (centres unmarked) [Sample 9, 1,3-butylene glycol] stands “◯ (Residual rate lower than 10%, not lower than 0.01%)”.

For the origin of these results see patent US20060165644A1, “Cosmetics” (Fancl Corporation, priority 2002, published 2006).
